Results as given in US6727278B1, “Pharmaceutically active agents that impede amyloid formation in vivo” (DMS Pharmaceutical Inc., priority 1986, dated 2004).

Assays:
DMS (dense microspheres) = test: Test 1: in vitro disruption of DMS on a glass slide, Congo Red red-green birefringence; settings: for activity in the in vitro assay: 10^−2-to-10^−3 M concentration range; for anti-amyloid activity in vitro: concentration of about 10^−2 M
From the text: TEST 1 In vitro Disruption of DMS on a Glass Slide
Homogeneous DMS preparations are placed by droplet on a clean dry glass slide. The volume and number of DMS used is optional but is recommended to be at least several thousand to facilitate interpretation (see Example 1 below). Larger samples are more costly but are easier and more unequivocal to examine. The DMS are mechanically disrupted using a stainless steel spatula scraping and pressing the DMS against a glass slide in repetitive manual back and forth motions for one minute. The slide is allowed to air dry. A few drops of Congo Red stain are then added to the dried slide and gently passed over the dried disrupted DMS for 30 seconds and the stain is then drained off the slide onto tissue paper or filter paper. The slide is then examined in the light microscope, the latter fitted with crossed polarizing lenses to assess red-green congophilic birefringence.
The result is an unequivocal red-to-green (“apple green”) birefringence similar to the red-to-apple green birefringence found in the senile-plaque amyloid of Alzheimer patients, and in quantities proportional to the volume of DMS applied to the slide initially.
For test purposes, a corresponding DMS sample is contacted with a possible pharmacological agent, and the DMS disruption/staining procedure as described above is repeated. Many variations are possible, e.g., the active agent may be applied to the DMS in solution, before application to the slide, or to the DMS on the slide. In any event, if the agent prevents the red-green birefringence observed in the negative control slide (no agent present), then the active agent should be tested further for efficacy against cerebral amyloidosis.
Approximately 80,000 homogeneously extracted DMS were placed in a droplet from a Pasteur pipette onto a glass slide, and the droplet was air dried. The DMS adhered to the glass slide. Acetylcholine (20 mM) in physiological saline was added in a droplet, as a possible test compound, to DMS.
The DMS were mechanically disrupted, in the presence of the test compound, as described above and then were allowed to air dry. A control slide was treated exactly in the same manner, except that the test compound was not added. Congo Red stain was added, and the reaction products were examined, as previously described.

human DMS = test: In vivo assay: amyloid formation induced by intracerebral injection of human DMS with the compound, Congo Red histology; set-up: species or system Male Wistar rats; settings: for Mean Lesion Area Composed of CBADs: percentage of lesion area, ** = significant decrease from untreated controls; for inhibition of amyloid formation in vivo: in-tissue levels in the range of 10^−5 to 10^−6 M
[1] = cited from earlier work
[2] = cited from earlier work; remark: listed apart in the source
[3] = 10^−5 − 10^−6M, CBADs = Congophilic Birefringent Amyloid Deposits

O=c1n(CCCN2CCN(c3cccc(Cl)c3)CC2)nc2ccccn12 [trazodone]
activity in the in vitro assay (DMS (dense microspheres)): inactive

NC(=O)N1c2ccccc2C=Cc2ccccc21 [carbamazepine]
activity in the in vitro assay (DMS (dense microspheres)): inactive

O=C([O-])c1cc(=O)c2c(OCC(O)COc3cccc4oc(C(=O)[O-])cc(=O)c34)cccc2o1.[Na+].[Na+] [Intal, Cromolyn Sodium]
Mean Number of CBADs Per Animal (human DMS; [3]): 2
Mean Lesion Area Composed of CBADs (human DMS; 10^−5 − 10^−6M): 0.4**
fraction entering the lungs ([1]; administered as a powder from an inhaler): about 10%
oral absorption [1]: poorly absorbed orally

CN(C)C(=O)Oc1cccc([N+](C)(C)C)c1 [neostigmine methylsulfate]
activity in the in vitro assay (DMS (dense microspheres)): not to be active

Cc1cc(Cl)nc(N)n1 [2-amino-4-chloro-6-methyl pyrimidine]
anti-amyloid activity in vitro (DMS (dense microspheres)): anti-amyloid activity

CCCC(CCC)C(=O)O [valproic acid]
activity in the in vitro assay (DMS (dense microspheres)): inactive

Nc1nc(O)nc2[nH]ncc12 [4-amino-6-hydroxypyrazolo [3,4-D] pyrimidine]
anti-amyloid activity in vitro (DMS (dense microspheres)): anti-amyloid activity

CSc1ccc2c(c1)N(CCC1CCCCN1C)c1ccccc1S2 (stereo not shown) [thioridazine]
activity in the in vitro assay (DMS (dense microspheres)): inactive

O=C1N(Cc2ccccc2)C2C[S+]3CCCC3C2N1Cc1ccccc1 (stereo not shown) [trimethophan camsylate]
activity in the in vitro assay (DMS (dense microspheres)): inactive

CC[C@H]1OC(=O)[C@H](C)[C@@H](O[C@H]2C[C@@](C)(OC)[C@@H](O)[C@H](C)O2)[C@H](C)[C@@H](O[C@@H]2O[C@H](C)C[C@H](N(C)C)[C@H]2O)[C@](C)(O)C[C@@H](C)C(=O)[C@H](C)[C@@H](O)[C@]1(C)O [erythromycin, Erythromycin]
Mean Number of CBADs Per Animal (human DMS; [3]): 2
Mean Lesion Area Composed of CBADs (human DMS; 10^−5 − 10^−6M): 0.2**
inhibition of amyloid formation in vivo (human DMS): inhibit amyloid formation in vivo
half-life ([1]; in vivo): about sixteen
solubility in water [2]: water-soluble

CCc1nc(N)nc(N)c1-c1ccc(Cl)cc1 [Daraprim, Pyrimethamine]
Mean Number of CBADs Per Animal (human DMS; [3]): 4
Mean Lesion Area Composed of CBADs (human DMS; 10^−5 − 10^−6M): 0.2**
inhibition of amyloid formation in vivo (human DMS): inhibit amyloid formation in vivo
oral absorption [1]: completely absorbed orally

O=C(O)c1cccnc1C(=O)O [2,3-pyridine-dicarboxylic acid]
anti-amyloid activity in vitro (DMS (dense microspheres)): anti-amyloid activity

Cl.Nc1c2c(nc3ccccc13)CCCC2 [THA, 9-amino-1,2,3,4-tetrahydroacridine hydrochloride]
anti-amyloid activity in vitro (DMS (dense microspheres)): anti-amyloid activity

O=P(O)(O)O[C@H]1[C@H](OP(=O)(O)O)[C@@H](OP(=O)(O)O)[C@H](OP(=O)(O)O)[C@@H](OP(=O)(O)O)[C@H]1OP(=O)(O)O [phytic acid]
activity in the in vitro assay (DMS (dense microspheres)): not to be active

CN(C)C(=O)Oc1ccc[n+](C)c1 [pyridostigmine bromide]
activity in the in vitro assay (DMS (dense microspheres)): not to be active

Cc1noc(NS(=O)(=O)c2ccc(N)cc2)c1C [Gantrisin, Sulfisoxazole]
Mean Number of CBADs Per Animal (human DMS; 10^−2M): 1
Mean Lesion Area Composed of CBADs (human DMS; 10^−2M): 0.1**
Mean Number of CBADs Per Animal (human DMS; [3]): 108
Mean Lesion Area Composed of CBADs (human DMS; 10^−5 − 10^−6M): 8.4
absorption and excretion ([1]; route not stated): rapidly absorbed and excreted

OCCN(CCO)c1nc(N2CCCCC2)c2nc(N(CCO)CCO)nc(N3CCCCC3)c2n1 [Persantine, 2,6-bis-(diethanolamino)-4,8-dipiperidinopyrimido-(5,4-d)-pyrimidine]
Mean Number of CBADs Per Animal (human DMS; 10^−2M): 4
Mean Lesion Area Composed of CBADs (human DMS; 10^−2M): 0.2**
Mean Number of CBADs Per Animal (human DMS; [3]): 146
Mean Lesion Area Composed of CBADs (human DMS; 10^−5 − 10^−6M): 14.6
